From patent publication US4335249A, “Herbicidal diphenyl ethers, sulfides, sulfoxides and sulfones” (Rohm and Haas Company, priority 1976, dated 1982)

Columns and labels:
Type in all cases: in vivo
marigold (Tagetes spp.) [1] = assay: Postemergence herbicidal activity, marigold; details: post-emergence, 336 h; for pest or weed control at 4483.4 g/ha: 4 lb/A
Description: (§1) Using the procedure described below, compounds of the invention are evaluated for control of several of the following plant species:
(§2) The following est procedure is employed. Seeds of selected crops and weeds are planted in soil in flats. For preemergence tests, the flats are treated with the test compound immediately after the planting. For postemergence tests, the seeds are allowed to germinate, and after two weeks the flats are treated with the test compound. The compound to be evaluated is dissolved in acetone, diluted with water, and sprayed over the flats using a carrier volume equivalent to 50 gallons per acre at the rate of application (pounds per acre, lb/A.) specified in the tables. About two weeks after the application of the test compound, the state of growth of the plants is observed and the phytotoxic effect of the compound is evaluated. Tables III and IV give the average percent control achieved by test compounds in terms of the percent of the plants which are killed by the compounds.

[2] = system: yellow nutsedge (Cyperus esculentus); assay: Preemergence herbicidal activity, yellow nutsedge; details: Cyperus, pre-emergence, 336 h; for pest or weed control at 8966.8 g/ha: 8 lb/A
Description: as §1, §2

wild oats (Avena fatua) [3] = assay: Preemergence herbicidal activity, wild oats; details: Avena fatua, pre-emergence, 336 h, Pre, read-out: % control, Wild oat; for pest or weed control at 8966.8 g/ha: 8 lb/A
Description: as §1, §2

[4] = system: morningglory (Ipomoca spp.); assay: Preemergence herbicidal activity, morningglory; details: Ipomoea, pre-emergence, 336 h; for pest or weed control at 8966.8 g/ha: 8 lb/A
Description: as §1, §2

[5] = system: downybrome (Bromus tectorum); assay: Preemergence herbicidal activity, downybrome; details: Bromus tectorum, pre-emergence, 336 h, Pre; for pest or weed control at 8966.8 g/ha: 8 lb/A
Description: as §1, §2

[6] = system: barnyardgrass (Echinochloa crusgalli); assay: Preemergence herbicidal activity, barnyardgrass; details: Echinochloa crus-galli, pre-emergence, 336 h, Pre; for pest or weed control at 8966.8 g/ha: 8 lb/A
Description: as §1
(§3) The following est procedure is employed. Seeds of selected crops and weeds are planted in soil in flats. For preemergence tests, the flats are treated with the test compound immediately after the planting. For postemergence tests, the seeds are allowed to germinate, and after two weeks the flats are treated with the test compound. The compound to be evaluated is dissolved in acetone, diluted with water, and sprayed over the flats using a carrier volume equivalent to 50 gallons per acre at the rate of application (pounds per acre, lb/A.) specified in the tables.

[7] = system: barnyardgrass (Echinochloa crusgalli); assay: Postemergence herbicidal activity, barnyardgrass; details: Echinochloa crus-galli, post-emergence, 336 h, Post; for pest or weed control at 4483.4 g/ha: 4 lb/A
Description: as §1, §3

foxtail (Setaria spp.) [8] = assay: Preemergence herbicidal activity, foxtail; details: Setaria, pre-emergence, 336 h, Pre; for pest or weed control at 8966.8 g/ha: 8 lb/A
Description: as §1, §2

marigold (Tagetes spp.) [9] = assay: Preemergence herbicidal activity, marigold; details: pre-emergence, 336 h; for pest or weed control at 8966.8 g/ha: 8 lb/A
Description: as §1, §2

[10] = system: yellow nutsedge (Cyperus esculentus); assay: Postemergence herbicidal activity, yellow nutsedge; details: Cyperus, post-emergence, 336 h; for pest or weed control at 4483.4 g/ha: 4 lb/A
Description: as §1, §2

foxtail (Setaria spp.) [11] = assay: Postemergence herbicidal activity, foxtail; details: Setaria, post-emergence, 336 h, Post; for pest or weed control at 4483.4 g/ha: 4 lb/A
Description: as §1, §2

[12] = system: tomato (Lycopersicon esculentum); assay: Preemergence herbicidal activity, tomato; details: Solanum lycopersicum, pre-emergence, 336 h, Pre; for pest or weed control at 8966.8 g/ha: 8 lb/A
Description: as §1, §2

[13] = system: cocklebur (Xanthium pensylvanicum); assay: Postemergence herbicidal activity, cocklebur; details: Xanthium strumarium, post-emergence, 336 h; for pest or weed control at 4483.4 g/ha: 4 lb/A
Description: as §1, §2

[14] = system: velvetleaf (Abutilon theophrasti); assay: Postemergence herbicidal activity, velvetleaf; details: Abutilon theophrasti, post-emergence, 336 h; for pest or weed control at 4483.4 g/ha: 4 lb/A
Description: as §1, §3

[15] = system: downybrome (Bromus tectorum); assay: Postemergence herbicidal activity, downybrome; details: Bromus tectorum, post-emergence, 336 h, Post; for pest or weed control at 4483.4 g/ha: 4 lb/A
Description: as §1, §2

[16] = system: tomato (Lycopersicon esculentum); assay: Postemergence herbicidal activity, tomato; details: Solanum lycopersicum, post-emergence, 336 h, Post; for pest or weed control at 4483.4 g/ha: 4 lb/A
Description: as §1, §2

[17] = system: velvetleaf (Abutilon theophrasti); assay: Preemergence herbicidal activity, velvetleaf; details: Abutilon theophrasti, pre-emergence, 336 h, Pre; for pest or weed control at 8966.8 g/ha: 8 lb/A
Description: as §1, §2

wild oats (Avena fatua) [18] = assay: Postemergence herbicidal activity, wild oats; details: Avena fatua, post-emergence, 336 h, Post, read-out: % control, Wild oat; for pest or weed control at 4483.4 g/ha: 4 lb/A
Description: as §1, §2

[19] = system: morningglory (Ipomoca spp.); assay: Postemergence herbicidal activity, morningglory; details: Ipomoea, post-emergence, 336 h; for pest or weed control at 4483.4 g/ha: 4 lb/A
Description: as §1, §2

[20] = system: cocklebur (Xanthium pensylvanicum); assay: Preemergence herbicidal activity, cocklebur; details: Xanthium strumarium, pre-emergence, 336 h; for pest or weed control at 8966.8 g/ha: 8 lb/A
Description: as §1, §2

Compound	pest or weed control at 4483.4 g/ha (marigold (Tagetes spp.) [1]) [%]	pest or weed control at 8966.8 g/ha [2] [%]	pest or weed control at 8966.8 g/ha (wild oats (Avena fatua) [3]) [%]	pest or weed control at 8966.8 g/ha [4] [%]	pest or weed control at 8966.8 g/ha [5] [%]	pest or weed control at 8966.8 g/ha [6] [%]	pest or weed control at 4483.4 g/ha [7] [%]	pest or weed control at 8966.8 g/ha (foxtail (Setaria spp.) [8]) [%]	pest or weed control at 8966.8 g/ha (marigold (Tagetes spp.) [9]) [%]	pest or weed control at 4483.4 g/ha [10] [%]	pest or weed control at 4483.4 g/ha (foxtail (Setaria spp.) [11]) [%]	pest or weed control at 8966.8 g/ha [12] [%]	pest or weed control at 4483.4 g/ha [13] [%]	pest or weed control at 4483.4 g/ha [14] [%]	pest or weed control at 4483.4 g/ha [15] [%]	pest or weed control at 4483.4 g/ha [16] [%]	pest or weed control at 8966.8 g/ha [17] [%]	pest or weed control at 4483.4 g/ha (wild oats (Avena fatua) [18]) [%]	pest or weed control at 4483.4 g/ha [19] [%]	pest or weed control at 8966.8 g/ha [20] [%]	other results
CCOC(=O)C(C)Oc1ccc(Oc2ccc(C(F)(F)F)cc2Cl)cc1C (stereo not drawn) [Example 10]	–	–	–	–	–	–	–	–	–	–	–	–	–	–	–	–	–	–	–	–	pest or weed control at 2241.7 g/ha (marigold (Tagetes spp.) [1]; 2 lb/A): 0%; pest or weed control at 2241.7 g/ha ([2]; 2 lb/A): 0%; pest or weed control at 2241.7 g/ha (wild oats (Avena fatua) [3]; 2 lb/A): 0%; pest or weed control at 2241.7 g/ha ([4]; 2 lb/A): 0%; pest or weed control at 2241.7 g/ha ([5]; 2 lb/A): 0%; pest or weed control at 2241.7 g/ha ([6]; 2 lb/A): 0%; pest or weed control at 2241.7 g/ha ([7]; 2 lb/A): 0%; pest or weed control at 2241.7 g/ha (foxtail (Setaria spp.) [8]; 2 lb/A): 0%; pest or weed control at 2241.7 g/ha (marigold (Tagetes spp.) [9]; 2 lb/A): 0%; pest or weed control at 2241.7 g/ha ([10]; 2 lb/A): 0%; pest or weed control at 2241.7 g/ha (foxtail (Setaria spp.) [11]; 2 lb/A): 0%; pest or weed control at 2241.7 g/ha ([12]; 2 lb/A): 0%; pest or weed control at 2241.7 g/ha ([13]; 2 lb/A): 40%; pest or weed control at 2241.7 g/ha ([14]; 2 lb/A): 40%; pest or weed control at 2241.7 g/ha ([15]; 2 lb/A): 0%; pest or weed control at 2241.7 g/ha ([16]; 2 lb/A): 30%; pest or weed control at 2241.7 g/ha ([17]; 2 lb/A): 0%; pest or weed control at 2241.7 g/ha (wild oats (Avena fatua) [18]; 2 lb/A): 0%; pest or weed control at 2241.7 g/ha ([19]; 2 lb/A): 80%; pest or weed control at 2241.7 g/ha ([20]; 2 lb/A): 0%
CCOC(=O)C(C)Oc1ccc(Sc2ccccc2C(F)(F)F)cc1 (stereo not drawn) [Example 44, ethyl 2-(4-(2-trifluoromethylphenylthio)phenoxy) propionate]	0	0	0	0	60	80	0	0	0	0	20	0	0	20	0	0	30	0	0	0	–
CCOC(=O)C(C)Oc1ccc(Sc2ccc(C(F)(F)F)cc2)cc1 (stereo not drawn) [Example 46]	0	0	0	0	50	70	50	70	0	0	30	0	0	0	30	80	0	20	0	0	–
